According to patent publication US10800789B2, “Antiviral compounds” (Gilead Pharmasset LLC, priority 2012, dated 2020):
pEC50: −log10 of the molar value. Where two headings read alike, the source gives them in different places.

Experiments:
[1] = tested on: stable HCV 1b RLuc replicon cells (dicistronic genotype 1b Con1 replicon); assay: Renilla luciferase HCV replicon reporter assay, genotype 1b; assay type: cell-based; conditions: Hepatitis C virus, 72 h, stable 1b Con1 RLuc replicon cells, 72 hours; read-out: 1b
In short: (§1)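 Cells carrying the stable or transiently transfected (Huh-Lunet) dicistronic RLuc replicons received 3-fold serial compound dilutions from 10 mM DMSO stocks. After 72 h, cells were lysed and Renilla luciferase read. DMSO served as the no-inhibition control and ITMN-191 above 100×EC50 as the positive control; EC50 by non-linear regression.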

[2] = tested on: stable HCV 1a RLuc replicon cells (dicistronic genotype 1a H77 replicon); assay: Renilla luciferase HCV replicon reporter assay, genotype 1a; assay type: cell-based; conditions: Hepatitis C virus, 72 h, stable 1a H77 RLuc replicon cells
In short: as §1

[3] = tested on: stable HCV 2a JFH-1 Rluc replicon cells (L31 present in NS5A); assay: Renilla luciferase HCV replicon reporter assay, genotype 2a JFH-1; assay type: cell-based; conditions: Hepatitis C virus; for EC50: read-out: 2a JFH (nM), genotype 2a JFH-1 replicon (L31 in NS5A), stable cells; for pEC50: read-out: 2a JFH, stable 2a JFH-1 Rluc replicon cells, L31 in NS5A, activity range
In short: as §1

[4] = tested on: NS5A chimeric genotype 2a JFH-1 replicon with genotype 2a J6 strain NS5A gene (M31 present); assay: Replicon assay, genotype 2a J6 NS5A chimera; assay type: cell-based, HCV; conditions: Hepatitis C virus; for pEC50: activity range
In short: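 Antiviral EC50 was determined in HCV replicon cells (stable RLuc lines for 1a H77, 1b Con1, 2a JFH-1 with NS5A L31; J6 NS5A chimera with M31) treated 72 h with compound. Renilla luciferase was then quantified.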

[5] = tested on: NS5A chimeric genotype 2a JFH-1 replicon with genotype 2b MD2b-1 strain NS5A gene (M31 present); assay: Replicon assay, genotype 2b NS5A chimera; assay type: cell-based, HCV; conditions: Hepatitis C virus; for pEC50: activity range
In short: as §1

[6] = tested on: NS5A chimeric genotype 1b Con1 replicon with genotype 3a S52 strain NS5A gene; assay: Replicon assay, genotype 3a NS5A chimera; assay type: cell-based, HCV; conditions: Hepatitis C virus; for pEC50: activity range
[7] = tested on: NS5A chimeric genotype 1b Con1 replicon with genotype 4a ED43 strain NS5A gene; assay: Replicon assay, genotype 4a NS5A chimera; assay type: cell-based, HCV; conditions: Hepatitis C virus; for EC50: read-out: 4a (s) (nM), genotype 4a NS5A chimeric replicon, stable replicon cells (s); for pEC50: read-out: 4a (s), (s), activity range
[8] = read-out: 2a J6 (t) (nM), genotype 2a J6 NS5A chimeric replicon (M31), transiently transfected (t) into Huh-Lunet cells
[9] = read-out: 2a J6 (t), transiently transfected (t) into Huh-Lunet cells
[10] = 2BS, read-out: 2b (s), stably replicating replicon cells (s)
[11] = read-out: 2b (s) (nM), genotype 2b MD2b-1 NS5A chimeric replicon (M31), stably replicating replicon cells (s)
[12] = read-out: 3a (s) (nM), genotype 3a NS5A chimeric replicon, stable replicon cells (s)

| Compound | pEC50 [1] | pEC50 [2] | pEC50 ([2]; activity range) | EC50 [3] [nM] | pEC50 [3] | EC50 [4, 8] [nM] | pEC50 [4, 9] | pEC50 [5, 10] | EC50 [5, 11] [nM] | EC50 ([5]; read-out: 2b (t) (nM), genotype 2b MD2b-1 NS5A chimeric replicon (M31), transiently transfected (t)) [nM] | pEC50 ([5]; read-out: 2b (t), transiently transfected (t) into Huh-Lunet cells) | EC50 [6, 12] [nM] | pEC50 ([6]; read-out: 3a (s), (s)) | EC50 [7] [nM] | pEC50 [7] | EC50 ([6]; read-out: 3a (t) (nM), genotype 3a NS5A chimeric replicon, transiently transfected (t)) [nM] | pEC50 ([6]; read-out: 3a (t), transiently transfected (t) into Huh-Lunet cells) | EC50 ([4]; read-out: 2a J6 (s) (nM), genotype 2a J6 NS5A chimeric replicon (M31), stably replicating replicon cells (s)) [nM] | pEC50 ([4]; read-out: 2a J6 (s), stably replicating replicon cells (s)) |
| --- | --- | --- | --- | --- | --- | --- | --- | --- | --- | --- | --- | --- | --- | --- | --- | --- | --- | --- | --- |
| COC[C@H]1C[C@@H](c2ncc(-c3ccc4c(c3)COc3cc5c(ccc6nc([C@@H]7CC[C@H](C)N7C(=O)[C@@H](NC(=O)OC)[C@@H](C)OC)[nH]c65)cc3-4)[nH]2)N(C(=O)[C@@H](NC(=O)OC)[C@@H](C)OC)C1 [FX, Methyl {(2S,3R)-3-methoxy-1-[(2S,5S)-2-(9-{2-[(2S,4S)-1-[N-(methoxycarbonyl)-O-methyl-L-threonyl]-4-(methoxymethyl)pyrrolidin-2-yl]-1H-imidazol-5-yl}-1,11-dihydroisochromeno[4′,3′:6,7]naphtho[1,2-d]imidazol-2-yl)-5-methylpyrrolidin-1-yl]-1-oxobutan-2-yl}carbamate] | 10.22 | 10.39 | > 10.00 | 0.024 | > 10.00 | 0.064 | > 10.00 | 9.00 to 10.00 | 0.288 | 0.122 | 9.00 to 10.00 | 0.243 | 9.00 to 10.00 | 0.031 | > 10.00 |  |  |  |  |
| COC(=O)N[C@@H](C)C(=O)N1[C@@H](C)CC[C@H]1c1nc2ccc3cc4c(cc3c2[nH]1)OCc1cc(-c2cnc([C@@H]3CC[C@H](C)N3C(=O)[C@@H](NC(=O)OC)C(C)C)[nH]2)ccc1-4 [HC] | 10.80 | 10.92 | > 10.00 | 0.014 | > 10.00 | 1.43 | 7.36 to 9.00 | 7.36 to 9.00 | 1.82 |  |  | 0.105 | 9.00 to 10.00 | 0.014 | > 10.00 |  |  |  |  |
| CC[C@H]1C[C@@H](c2nc3ccc4cc5c(cc4c3[nH]2)OCc2cc(-c3cnc([C@@H]4CC[C@H](C)N4C(=O)[C@@H](NC(=O)OC)C(C)C)[nH]3)ccc2-5)N(C(=O)[C@@H](NC(=O)OC)[C@@H](C)OC)C1 [GU] | 10.66 | 10.85 | > 10.00 | 0.014 | > 10.00 | 0.075 | > 10.00 | 9.00 to 10.00 | 0.728 |  |  | 0.152 | 9.00 to 10.00 | 0.026 | > 10.00 |  |  |  |  |
| COC(=O)N[C@H](C(=O)N1[C@H](c2ncc(-c3ccc4c(c3)COc3cc5c(ccc6nc([C@@H]7CC[C@H](C)N7C(=O)[C@@H](NC(=O)OC)C7CCOCC7)[nH]c65)cc3-4)[nH]2)C[C@@H]2CCC[C@@H]21)C(C)C [IY] | 10.52 | 10.64 | > 10.00 | 0.012 | > 10.00 | 0.047 | > 10.00 | > 10.00 | 0.069 |  |  | 0.045 | > 10.00 | 0.019 | > 10.00 |  |  |  |  |
| COC(=O)N[C@H](C(=O)N1[C@@H](C)CC[C@H]1c1nc2ccc3cc4c(cc3c2[nH]1)OCc1cc(-c2cnc([C@@H]3C[C@H](F)CN3C(=O)[C@@H](NC(=O)OC)C3CCOCC3)[nH]2)ccc1-4)C(C)C [HT] | 9.96 | 10.15 | > 10.00 | 0.051 | > 10.00 | 0.778 | 9.00 to 10.00 | 7.36 to 9.00 | 1.35 |  |  | 0.075 | > 10.00 | 0.03 | > 10.00 |  |  |  |  |
| COC(=O)N[C@H](C(=O)N1[C@@H](C)CC[C@H]1c1nc2ccc3cc4c(cc3c2[nH]1)OCc1cc(-c2cnc([C@@H]3[C@@H]5C[C@@H]5CN3C(=O)[C@@H](NC(=O)OC)C3CCOCC3)[nH]2)ccc1-4)C(C)C [HO] | 10.13 | 10.23 | > 10.00 | 0.022 | > 10.00 | 0.207 | 9.00 to 10.00 | 9.00 to 10.00 | 0.639 |  |  | 0.136 | 9.00 to 10.00 | 0.04 | > 10.00 |  |  |  |  |
| CC[C@H]1CC[C@@H](c2nc3ccc4cc5c(cc4c3[nH]2)OCc2cc(-c3cnc([C@@H]4CC[C@H](C)N4C(=O)[C@@H](NC(=O)OC)C(C)C)[nH]3)ccc2-5)N1C(=O)[C@H](NC(=O)OC)c1ccccc1 [IH] | 10.68 | 10.70 | > 10.00 | 0.024 | > 10.00 | 0.514 | 9.00 to 10.00 | 9.00 to 10.00 | 0.194 |  |  | 0.052 | > 10.00 | 0.016 | > 10.00 |  |  |  |  |
| COC(=O)N[C@H](C(=O)N1C[C@@H](C)C[C@H]1c1nc2ccc3cc4c(cc3c2[nH]1)OCc1cc(-c2cnc([C@@H]3CC[C@H](C)N3C(=O)[C@@H](NC(=O)OC)C(C)(C)C)[nH]2)ccc1-4)C(C)C [HX] | 10.70 | 10.96 | > 10.00 | 0.027 | > 10.00 | 3.28 | 7.36 to 9.00 | 7.36 to 9.00 | 2.92 |  |  | 0.266 | 9.00 to 10.00 | 0.014 | > 10.00 |  |  |  |  |
| CC[C@H]1CC[C@@H](c2ncc(-c3ccc4c(c3)COc3cc5c(ccc6nc([C@@H]7C[C@H](C)CN7C(=O)[C@@H](NC(=O)OC)C7CCOCC7)[nH]c65)cc3-4)[nH]2)N1C(=O)[C@@H](NC(=O)OC)C(C)C [HZ] | 10.60 | 10.92 | > 10.00 | 0.014 | > 10.00 | 0.023 | > 10.00 | > 10.00 | 0.073 |  |  | 0.14 | 9.00 to 10.00 | 0.012 | > 10.00 |  |  |  |  |
| COC(=O)NC(C(=O)N1[C@@H](C)CC[C@H]1c1nc2ccc3cc4c(cc3c2[nH]1)OCc1cc(-c2cnc([C@@H]3CC[C@H](C)N3C(=O)[C@@H](NC(=O)OC)[C@@H](C)OC)[nH]2)ccc1-4)C1CCOCC1 (stereo partly drawn) [EG, methyl{2-[(2S,5S)-2-(9-{2-[(2S,5S)-1-{(2S,3R)-3-methoxy-2-[(methoxycarbonyl)amino]butanoyl}-5-methylpyrrolidin-2-yl]-1H-imidazol-5-yl}-1,11-dihydroisochromeno[4′,3′:6,7]naphtho[1,2-d]imidazol-2-yl)-5-methylpyrrolidin-1-yl]-2-oxo-1-(tetrahydro-2H-pyran-4-yl)ethyl}carbamate] | 10.35 | 10.44 | > 10.00 | 0.022 | > 10.00 | 0.023 | > 10.00 | > 10.00 | 0.072 |  |  | 0.076 | > 10.00 | 0.016 | > 10.00 | 0.103 | 9.00 to 10.00 |  |  |
| COC(=O)N[C@H](C(=O)N1[C@@H](C)CC[C@H]1c1ncc(-c2ccc3c(c2)COc2cc4c(ccc5nc([C@@H]6CC[C@H](C)N6C(=O)[C@@H](NC(=O)OC)C6CC6)[nH]c54)cc2-3)[nH]1)C(C)C [HD] | 10.77 | 10.82 | > 10.00 | 0.017 | > 10.00 | 1.39 | 7.36 to 9.00 | 7.36 to 9.00 | 1.9 |  |  | 0.102 | 9.00 to 10.00 | 0.016 | > 10.00 |  |  |  |  |
| CCC[C@H]1CC[C@@H](c2nc3ccc4cc5c(cc4c3[nH]2)OCc2cc(-c3cnc([C@@H]4CC[C@H](C)N4C(=O)[C@@H](NC(=O)OC)C(C)C)[nH]3)ccc2-5)N1C(=O)[C@@H](NC(=O)OC)C1CCOCC1 [IV] | 10.28 | 10.35 | > 10.00 | 0.055 | > 10.00 |  |  | 9.00 to 10.00 | 0.426 |  |  | 0.236 | 9.00 to 10.00 | 0.018 | > 10.00 |  |  | 0.068 | > 10.00 |
